From patent EP0018155A2, “Novel cephalosporin compounds, a process for the preparation thereof, pharmaceutical compositions containing the same and the use thereof as a therapeutic agent against a microorganism” (NOVO NORDISK A/S, priority 1979, dated 1980) come the findings set out here.

≈ marks a conversion by molar mass, not a printed value. Read-outs that look alike come from different tables or passages of the source.

Test in all cases: agar serial dilution test (MIC)
What all share (type): cell-based

One assay concerns S. albus 3348. As for the experimental part:
(§1) The antibiotic activity in vitro of some compounds according to the invention and of some previously known compounds was tested by means of an agar serial dilution test. The following compounds were tested: 7β-[2-(2-Aminothiazol-4-yl)-2-diethylphosphoryloxyiminoacetamido] cephalosporanic acid (designated ES 643, 7β-[2-(2-amino- thiazol-4-yl)-2-dimethylphosphoryloxyiminoacetamido] cephalosporanic acid (designated ES 671), 7β-[2-(2-amino- thiazol-4-yl)-2-dimorpholinophosphoryloxyiminoacetamido] cephalosporanic acid (designated ES 656), 7β-[2-(2-amino- thiazol-4-yl)-2-methylmethylphosphonyloxyiminoacetamido] cephalosporanic acid (designated ES 682), 7β-[2-(2-amino- thiazol-4-yl)-2-hydroxyiminoacetamido] cephalosporanic acid (designated A), cefuroxime (designated B), and cephalotin (designated C). MIC designates minimum inhibitory concentration.

A further assay has as its system E. coli 04. As for the experimental part:
as §1

Another assay deals with S. albus 3578. Here is the method: as §1
A further assay relates to K. pneumoniae K8. The note with it: Klebsiella pneumoniae. Here is the method: as §1
The next assay relates to P. vulgaris 5209. Here is the method:
as §1

The next assay relates to S. pyogenes 12384. Here is the method: as §1
The test system of the next assay is P. vulgaris 17028. As for the experimental part: as §1
The subject of another assay is P. morganii 18. Here is the method: as §1
In another assay the test system is P. mirabilis 2311. As for the experimental part: as §1
For another assay, the system named is S. aureus 3349. As for the experimental part: as §1
For a further assay, the system named is S. aureus 3356. As for the experimental part: as §1
The subject of another assay is S. aureus 209P. Particulars: Staphylococcus aureus. Here is the method: as §1
The test system of the next assay is P. morganii 69. Here is the method: as §1
For another assay, the system named is K. edwardsii K1. As for the experimental part: as §1
The subject of the next assay is S. pyogenes 12334. As for the experimental part:
as §1

The test system of the next assay is P. mirabilis 682. As for the experimental part:
as §1

A further assay deals with S. albus 12228. Here is the method:
as §1

The next assay relates to P. mirabilis 2255. Here is the method:
as §1

The next assay deals with P. vulgaris 16868. As for the experimental part:
as §1

Another assay deals with S. aureus 13709. Here is the method:
as §1

For the next assay, the system named is E. coli 01. Here is the method: as §1
The mark [1] stands for this setting: Staphylococcus albus, S. albus 3348, read-out: MIC value.
The mark [2] stands for this setting: Escherichia coli, E. coli 04, read-out: MIC value.
The mark [3] stands for this setting: Staphylococcus albus, S. albus 3578, read-out: MIC value.
The mark [4] stands for this setting: K. pneumoniae K8, read-out: MIC value.
Setting [5] is: Proteus vulgaris, P. vulgaris 5209, read-out: MIC value.
The mark [6] stands for this setting: Streptococcus pyogenes, S. pyogenes 12384, read-out: MIC value.
[7] abbreviates: Proteus vulgaris, P. vulgaris 17028, read-out: MIC value.
[8] abbreviates: Morganella morganii, P. morganii 18, read-out: MIC value.
Setting [9] is: Proteus mirabilis, P. mirabilis 2311, read-out: MIC value.
[10] abbreviates: Staphylococcus aureus, S. aureus 3349*, penicillin-resistant strain, read-out: MIC value.
Setting [11] is: Staphylococcus aureus, S. aureus 3356*, penicillin-resistant strain, read-out: MIC value.
[12] abbreviates: S. aureus 209P, read-out: MIC value.
The mark [13] stands for this setting: Morganella morganii, P. morganii 69, read-out: MIC value.
Where [14] appears, read: K. edwardsii K1, read-out: MIC value.
The mark [15] stands for this setting: Streptococcus pyogenes, S. pyogenes 12334, read-out: MIC value.
The mark [16] stands for this setting: Proteus mirabilis, P. mirabilis 682, read-out: MIC value.
The mark [17] stands for this setting: Staphylococcus albus, S. albus 12228, read-out: MIC value.
Where [18] appears, read: Proteus mirabilis, P. mirabilis 2255, read-out: MIC value.
[19] abbreviates: Proteus vulgaris, P. vulgaris 16868, read-out: MIC value.
The mark [20] stands for this setting: Staphylococcus aureus, S. aureus 13709, read-out: MIC value.
The mark [21] stands for this setting: Escherichia coli, E. coli 01, read-out: MIC value.

Regarding `CC(=O)OCC1=C(C(=O)O)N2C(=O)C(NC(=O)C(=NO)c3csc(N)n3)C2SC1` (stereo not drawn) [A, 7β-[2-(2-amino-thiazol-4-yl)-2-hydroxyiminoacetamido] cephalosporanic acid, reference compound], the MIC with S. albus 3348 (setting [1]) is 0.8 µg/mL (≈ 1.81 µM); in the assay with E. coli 04 (setting [2]) it was 0.2 µg/mL (≈ 0.453 µM); in the assay on S. albus 3578 (setting [3]) it was 0.8 µg/mL (≈ 1.81 µM); with K. pneumoniae K8 (setting [4]), 0.4 µg/mL (≈ 0.906 µM); in the assay with P. vulgaris 5209 (setting [5]), 6.2 µg/mL (≈ 14 µM); in the assay with S. pyogenes 12384 (setting [6]), less than 0.1 µg/mL. In addition, the MIC in the assay on P. vulgaris 17028 (setting [7]) was 0.8 µg/mL (≈ 1.81 µM); in the assay with P. morganii 18 (setting [8]) it was 0.2 µg/mL (≈ 0.453 µM); with P. mirabilis 2311 (setting [9]), less than 0.1 µg/mL; in the assay with S. aureus 3349 (setting [10]) it was 1.6 µg/mL (≈ 3.62 µM); in the assay on S. aureus 3356 (setting [11]) it was 0.8 µg/mL (≈ 1.81 µM); with S. aureus 209P (setting [12]) it was 1.6 µg/mL (≈ 3.62 µM). The MIC in the assay on P. morganii 69 (setting [13]) is 0.2 µg/mL (≈ 0.453 µM); with K. edwardsii K1 (setting [14]), 0.2 µg/mL (≈ 0.453 µM); in the assay on S. pyogenes 12334 (setting [15]), less than 0.1 µg/mL; with P. mirabilis 682 (setting [16]), less than 0.1 µg/mL; in the assay with S. albus 12228 (setting [17]), 0.8 µg/mL (≈ 1.81 µM); in the assay with P. mirabilis 2255 (setting [18]), less than 0.1 µg/mL. Besides, the MIC in the assay with P. vulgaris 16868 (setting [19]) was 1.6 µg/mL (≈ 3.62 µM); in the assay on S. aureus 13709 (setting [20]) it was 1.6 µg/mL (≈ 3.62 µM); with E. coli 01 (setting [21]) it was less than 0.1 µg/mL.
Take `CO/N=C(\C(=O)N[C@@H]1C(=O)N2C(C(=O)O)=C(COC(N)=O)CS[C@H]12)c1ccco1` [B, cefuroxime, reference compound]: the MIC in the assay with S. albus 3348 (setting [1]) was 0.2 µg/mL (≈ 0.471 µM); in the assay with E. coli 04 (setting [2]), 6.2 µg/mL (≈ 14.6 µM); with S. albus 3578 (setting [3]) it was 0.2 µg/mL (≈ 0.471 µM); with K. pneumoniae K8 (setting [4]), 12.5 µg/mL (≈ 29.5 µM); with P. vulgaris 5209 (setting [5]), more than 100 µg/mL; in the assay with S. pyogenes 12384 (setting [6]), less than 0.1 µg/mL. The MIC with P. vulgaris 17028 (setting [7]) was more than 100 µg/mL; with P. morganii 18 (setting [8]), 25 µg/mL (≈ 58.9 µM); with P. mirabilis 2311 (setting [9]), 0.8 µg/mL (≈ 1.89 µM); in the assay on S. aureus 3349 (setting [10]), 0.8 µg/mL (≈ 1.89 µM); with S. aureus 3356 (setting [11]), 0.8 µg/mL (≈ 1.89 µM); in the assay on S. aureus 209P (setting [12]), 1.6 µg/mL (≈ 3.77 µM). In addition, the MIC was 25 µg/mL (≈ 58.9 µM) with P. morganii 69 (setting [13]); 6.2 µg/mL (≈ 14.6 µM) with K. edwardsii K1 (setting [14]); less than 0.1 µg/mL with S. pyogenes 12334 (setting [15]); 3.1 µg/mL (≈ 7.3 µM) in the assay on P. mirabilis 682 (setting [16]); 0.4 µg/mL (≈ 0.943 µM) with S. albus 12228 (setting [17]); 1.6 µg/mL (≈ 3.77 µM) in the assay with P. mirabilis 2255 (setting [18]). Moreover, the MIC in the assay with P. vulgaris 16868 (setting [19]) was more than 100 µg/mL; in the assay with S. aureus 13709 (setting [20]), 0.8 µg/mL (≈ 1.89 µM); in the assay with E. coli 01 (setting [21]), 3.1 µg/mL (≈ 7.3 µM).
For the compound `CC(=O)OCC1=C(C(=O)O)N2C(=O)[C@@H](NC(=O)Cc3cccs3)[C@H]2SC1` [C, cephalotin, reference compound], the MIC in the assay on S. albus 3348 (Staphylococcus albus, 3348, read-out: MIC value in μg/ml) is less than 0.1 µg/mL; in the assay with E. coli 04 (Escherichia coli, 04, read-out: MIC value in μg/ml) it was 12.5 µg/mL (≈ 31.5 µM); in the assay on S. albus 3578 (Staphylococcus albus, 3578, read-out: MIC value in μg/ml) it was less than 0.1 µg/mL; in the assay with K. pneumoniae K8 (K8, read-out: MIC value in μg/ml), 50 µg/mL (≈ 126 µM); with P. vulgaris 5209 (Proteus vulgaris, 5209, read-out: MIC value in μg/ml), more than 100 µg/mL; in the assay with S. pyogenes 12384 (Streptococcus pyogenes, 12384, read-out: MIC value in μg/ml) it was less than 0.1 µg/mL. Moreover, the MIC in the assay on P. vulgaris 17028 (Proteus vulgaris, 17028, read-out: MIC value in μg/ml) is more than 100 µg/mL; in the assay on P. morganii 18 (Morganella morganii, 18, read-out: MIC value in μg/ml), more than 100 µg/mL; with P. mirabilis 2311 (Proteus mirabilis, 2311, read-out: MIC value in μg/ml), 12.5 µg/mL (≈ 31.5 µM); in the assay on S. aureus 3349 (Staphylococcus aureus, 3349, read-out: MIC value in μg/ml), 0.4 µg/mL (≈ 1.01 µM); in the assay with S. aureus 3356 (Staphylococcus aureus, 3356, read-out: MIC value in μg/ml), less than 0.1 µg/mL; with S. aureus 209P (209P, read-out: MIC value in μg/ml), less than 0.1 µg/mL. For the same compound, the MIC with P. morganii 69 (Morganella morganii, 69, read-out: MIC value in μg/ml) was more than 100 µg/mL; in the assay on K. edwardsii K1 (read-out: MIC value in μg/ml), 0.2 µg/mL (≈ 0.504 µM); in the assay with S. pyogenes 12334 (Streptococcus pyogenes, 12334, read-out: MIC value in μg/ml), less than 0.1 µg/mL; in the assay with P. mirabilis 682 (Proteus mirabilis, 682, read-out: MIC value in μg/ml), 6.2 µg/mL (≈ 15.6 µM); in the assay on S. albus 12228 (Staphylococcus albus, 12228, read-out: MIC value in μg/ml), 0.2 µg/mL (≈ 0.504 µM); with P. mirabilis 2255 (Proteus mirabilis, 2255, read-out: MIC value in μg/ml), 3.1 µg/mL (≈ 7.82 µM). Besides, the MIC with P. vulgaris 16868 (Proteus vulgaris, 16868, read-out: MIC value in μg/ml) is more than 100 µg/mL; with S. aureus 13709 (Staphylococcus aureus, 13709, read-out: MIC value in μg/ml), 0.4 µg/mL (≈ 1.01 µM); with E. coli 01 (Escherichia coli, 01, read-out: MIC value in μg/ml) it was 6.2 µg/mL (≈ 15.6 µM).
